# How the values were obtained:
# NCSC populations = assay: GFAP immunoreactivity as onset of glial-specific clonogenic differentiation; format: cell-based, murine
# Experimental: FIG. 12A depicts an RT-PCR analysis of FGF1.A mRNA expression. Briefly, populations of murine NCSC were treated for 48 hours in Morrison media supplemented with either 7.5 nM sJ1, 5.0 nM sDl1, 10 μg/ml of α-thrombin or 5 μg/ml TRAP, and the steady-state levels of the FGF1.A mRNA were measured using RT-PCR as described elsewhere herein. […] Clonogenic differentiation assays of murine NCSC populations were assessed by maintaining the cells in Morrison media supplemented with increasing concentrations of either sJ1 or sDl1. […] Clonogenic differentiation assays of NCSC populations was assessed by maintaining the cells in Morrison media supplemented with either 7.5 nM sJ1 (▪-▪) or 5 nM sDl1 (▴-▴). The onset of gliogenic differentiation was determined by GFAP immunohistochemistry. […]
# Since sJ1 enabled the retention of NCSC neurogenic potential over a 7 day period of exposure (Table 1), glial fibrillary acidic protein (GFAP) immunoreactivity was utilized as a measure of the onset of glial-specific clonogenic differentiation (Morrison et al., 1999, Cell 96:737-749; Stemple et al., 1992, Cell 71:973-985). […] As previously reported (Morrison et al., 2000, Cell 101:499-510), after 48 hours of exposure to sDl1, GFAP immunoreactive cells were detected in NCSC populations (FIG. 12C). […]
# [1] = test system: Notch-dependent CSL1 activity in full-length Jagged1 NIH 3T3 cell transfectants; assay: Dual Luciferase Reporter Assay of CSL1-dependent transcription; format: cell-based, murine
# NSC populations = assay: Clonal expansion of NSC on NIH 3T3 transfectant feeder layer; format: cell-based
# [2] = test system: FGF1R136K NIH 3T3 cell transfectants; assay: Thrombin stimulation and immunoblot analysis of FGF1 release; format: cell-based, murine
# Experimental: FGF1R136K NIH 3T3 cell transfectants or adenovirally-transduced NIH 3T3 cells were washed with DMEM containing 5 units/ml of heparin (Sigma) and stimulated with either 10 μg/ml α-thrombin (a gift from Dr. J. Fenton) or 5 μM TRAP (Sigma) at 37° C. for different periods of time. Control cells were incubated in the absence of thrombin for the same time period. Conditioned media were collected at each time period, filtered, and concentrated as previously described (Jackson et al., 1992, Proc. Natl. Acad. Sci. U.S.A. 89:10691-10695). The concentrates were resolved by SDS-PAGE and subjected to immunoblot analysis using a rabbit antibody against either FGF1 (Jackson et al., 1992), Syt1 (LaVallee et al.,1998, J. Biol. Chem. 273:22217-22223) or Myc (Oncogene). The heat shock-induced release of FGF1 was performed at 42° C. for 110 minutes as previously described (Jackson et al., 1992). Cell viability was assessed by measuring lactate dehydrogenase activity in the conditioned medium after filtration as disclosed previously elsewhere herein (published as Mandinova et al., 2003, J. Cell Sci. 116:2687-2696), and total cell lysates were obtained and processed for immunoblot analysis as described (Landriscina et al., 2001, J. Biol. Chem. 276:22544-22552).
# Stable FGF1R136K NIH 3T3 cell transfectants were pre-incubated with either 100 ng/ml pertussis toxin (PTX) or 10 ng/ml cholera toxin (CT) for 60 minutes at 37° C. in DMEM containing 10% BCS. After pre-incubation, the cells were washed, stimulated with 10 μg/ml of thrombin for different periods of time in the presence of either 100 ng/ml PTX or 10 ng/ml CT, conditioned medium collected, and subjected to immunoblot analysis as described above.
# Since FGF1 is known to be susceptible to thrombin cleavage at residue 136 (Erzurum et al., 2003, J. Vasc. Surg. 37:1075-1081), a thrombin-resistant FGF1 mutant (FGF1R136K; described in International Patent Publication No. WO03/052378, which is incorporated by reference in its entirety herein) was used and stable FGF1R136K NIH 3T3 cell transfectants were produced.
molecule,measurement,setting,value
"sJ1: Soluble Jagged1, amino acid residues from about 1 to 1067 (SEQ ID NO:3) of full-length Jagged1",percentage of the colony expressing the glial-specific protein GFAP,NCSC populations; day 7,23±5%
same,"CSL1-dependent transcription, of the control level",[1]; sJ1 expression (sJ1 NIH 3T3 cell transfectants),approximately 25%
Thrombin,effect on size of NSC colonies,NSC populations; full-length Delta1 NIH 3T3 cell transfectant feeder layer,failed to induce
same,effect on size of NSC colonies,"NSC populations; full-length Jagged1 NIH 3T3 cell transfectant feeder layer, 5 μg/ml thrombin",exaggeration of the size of the NSC colonies
same,export of FGF2,[2],unable to induce
same,concentration giving maximal response of FGF1R136K release,[2]; 37° C.,10 µg/mL
same,export of S100A13,"[2]; 37° C., cells co-expressing S100A13 and FGF1R136K",presence of S100A13 in the extracellular compartment
same,release of the FGF1R136K mutant into the extracellular compartment,"[2]; 37° C., 10 μg/ml α-thrombin or 5 μM TRAP",rapid and sustained appearance
same,time to maximum levels of FGF-1 release after contact,[2]; FGF-1-NIH 3T3 transfectants,one
same,release of the FGF1R136K mutant from cells with elevated Notch1 signaling,[2]; cells adenovirally transduced with caN1,unable to initiate the release
same,export of p40 Syt1,[2]; p40 Syt1 adenovirally transduced,presence of p40 Syt1 in the extracellular compartment
same,effect on Notch-dependent CSL1 activity,[1],reduce the level of Notch-dependent CSL1 activity in a dose-dependent manner
same,"CSL1-dependent transcription, of the control level",[1]; maximal attenuation by thrombin,approximately 75%
"sDl1: soluble non-transmembrane form of the Notch ligand Delta1 (protein, left off: small tags and cut ends, soluble non-transmembrane form of the Notch ligand Delta1) QVWSSGVFELKLQEFVNKKGLLGNRNCCRGGAGPPPCACRTFFRVCLKHYQASVSPEPPCTYGSAVTPVLGVDSFSLPDGGGADSAFSNPIRFPFGFTWPGTFSLIIEALHTDSPDDLATENPERLISRLATQRHLTVGEEWSQDLHSSGRTDLKYSYRFVCDEHYYGEGCSVFCRPRDDAFGHFTCGERGEKVCNPGWKGPYCTEPICLPGCDEQHGFCDKPGECKCRVGWQGRYCDECIRYPGCLHGTCQQPWQCNCQEGWGGLFCNQDLNYCTHHKPCKNGATCTNTGQGSYTCSCRPGYTGATCELGIDECDPSPCKNGGSCTDLENSYSCTCPPGFYGKICELSAMTCADGPCFNGGRCSDSPDGGYSCRCPVGYSGFNCEKKIDYCSSSPCSNGAKCVDLGDAYLCRCQAGFSGRHCDDNVDDCASSPCANGGTCRDGVNDFSCTCPPGYTGRNCSAPVSRCEHAPCHNGATCHERGHRYVCECARGYGGPNCQFLLPELPPGPAVVDLTEKLEGQGGPFPW",time of exposure at which GFAP immunoreactive cells were detected,NCSC populations,48 h

# Reference: patent US7501281B2, “Compositions, methods and kits related to thrombin, Notch signaling and stamatogenesis and growth of stem cells” (Maine Medical Center Research Institute, priority 2003, dated 2009)
